According to US12606541B2, “PPARg modulators and methods of use” (Eisai R&D Management Co., Ltd., priority 2020, dated 2026):

What was measured:
His6-TEV-PPARγ-(234-505) = target: T1, His6-TEV-PPARγ-(234-505) (Homo sapiens, UniProt P37231); assay: TR-FRET Assay to Measure Co-R Peptide Recruitment to PPARγ; format: biochemical; settings: Co-R peptide (SMRT-ID2) recruitment; top final concentration 20 μM; read-out: TR-FRET i-Ag; AC50
T1 construct: The His6-TEV-PPARγ-(234-505) protein for assay was expressed and purified; TEV cleavage site (N); made in house
T1 sequence (P37231 234-505): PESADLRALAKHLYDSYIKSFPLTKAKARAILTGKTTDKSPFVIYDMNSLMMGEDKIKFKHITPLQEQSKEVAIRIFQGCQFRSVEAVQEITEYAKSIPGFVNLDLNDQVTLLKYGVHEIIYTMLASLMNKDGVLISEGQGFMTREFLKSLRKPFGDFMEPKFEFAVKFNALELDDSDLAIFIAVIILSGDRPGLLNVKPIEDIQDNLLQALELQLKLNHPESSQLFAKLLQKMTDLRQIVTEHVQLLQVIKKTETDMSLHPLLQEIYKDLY
Procedure, shortened: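 Corepressor recruitment is measured by adding terbium-labeled anti-His antibody and FITC SMRT-ID2 peptide, at 5 and 200 nM final, after a 20-minute room-temperature protein–compound incubation. After one further hour, signal is converted to percent response between DMSO and 500 nM T0070907 wells.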

UM-UC-9 engineered cells = assay: Cell proliferation / short-term viability assay, CellTiter-Glo 144 h; format: cell-based, human; settings: Homo sapiens, UM-UC-9, 144 h, read-out: CTGlo 144 h UMUC9.5, G150
Procedure, shortened: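 Viability read by CellTiter-Glo 2.0 luminescence at day 7 versus DMSO-vehicle wells and a T0 plate measured on day 0. Cells: UM-UC-9 engineered assay-ready stocks, 500 cells/well in high-glucose DMEM with 10% FBS, 37° C, 5% CO2.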

Compound | AC50 (His6-TEV-PPARγ-(234-505)) [nM] | IC50 (UM-UC-9 engineered cells) [nM]
COc1cc(-c2cc(C(=O)N3CCC(C(=O)NCc4cc(C(F)F)on4)CC3)n[nH]2)c(Cl)cn1 [Example 225, 1-(5-(5-chloro-2-methoxypyridin-4-yl)-1H-pyrazole-3-carbonyl)-N-((5-(difluoromethyl)isoxazol-3-yl)methyl)piperidine-4-carboxamide] | 327 | 1720
COc1cc(-c2cc(C(=O)N3CCC(C(=O)NCc4ccc5cc[nH]c5n4)CC3)n[nH]2)c(Cl)cn1 [Example 226, N-((1H-pyrrolo[2,3-b]pyridin-6-yl)methyl)-1-(5-(5-chloro-2-methoxypyridin-4-yl)-1H-pyrazole-3-carbonyl)piperidine-4-carboxamide] | 42.8 | 427
COc1cc(-c2cc(C(=O)N3CCC(C(=O)NCc4ccc5oc(=O)n(C)c5c4)CC3)n[nH]2)c(Cl)cn1 [Example 228, 1-(5-(5-chloro-2-methoxypyridin-4-yl)-1H-pyrazole-3-carbonyl)-N-((3-methyl-2-oxo-2,3-dihydrobenzo[d]oxazol-5-yl)methyl)piperidine-4-carboxamide] | 490 | > 10000
COc1cc(-c2cc(C(=O)N3CCC(C(=O)NCc4ccc5cnn(C)c5c4)CC3)n[nH]2)c(Cl)cn1 [Example 229, 1-(5-(5-chloro-2-methoxypyridin-4-yl)-1H-pyrazole-3-carbonyl)-N-((1-methyl-1H-indazol-6-yl)methyl)piperidine-4-carboxamide] | 70.6 | 614
COc1cc(-c2cc(C(=O)N3CCC(C(=O)NCC45CC(CCO4)C5)CC3)n[nH]2)c(Cl)cn1 [Example 230] | 134 | 697
COc1cc(-c2cc(C(=O)N3CCC(C(=O)NCc4cnc5c(cnn5C)c4)CC3)n[nH]2)c(Cl)cn1 [Example 232, 1-(5-(5-chloro-2-methoxypyridin-4-yl)-1H-pyrazole-3-carbonyl)-N-((1-methyl-1H-pyrazolo[3,4-b]pyridin-5-yl)methyl)piperidine-4-carboxamide] | 516 | 2150
COc1cc(-c2cc(C(=O)N3CCC(C(=O)N[C@H]4CCOc5ccc(C#N)cc54)CC3)n[nH]2)c(Cl)cn1 [Example 233, (S)-1-(5-(5-chloro-2-methoxypyridin-4-yl)-1H-pyrazole-3-carbonyl)-N-(6-cyanochroman-4-yl)piperidine-4-carboxamide] | 196 | 3430
COc1cc(-c2cc(C(=O)N3CCC(C(=O)NCc4ccc5c(c4)CC(=O)N5C)CC3)n[nH]2)c(Cl)cn1 [Example 235, 1-(5-(5-chloro-2-methoxypyridin-4-yl)-1H-pyrazole-3-carbonyl)-N-((1-methyl-2-oxoindolin-5-yl)methyl)piperidine-4-carboxamide] | 404 | 2360
COc1cc(-c2cc(C(=O)N3CCC(C(=O)NCc4ccc5c(c4)CCS5(=O)=O)CC3)n[nH]2)c(Cl)cn1 [Example 237, 1-(5-(5-chloro-2-methoxypyridin-4-yl)-1H-pyrazole-3-carbonyl)-N-((1,1-dioxido-2,3-dihydrobenzo[b]thiophen-5-yl)methyl)piperidine-4-carboxamide] | 722 | > 10000
COc1cc(-c2cc(C(=O)N3CCC(C(=O)NCc4nccc(C(F)F)n4)CC3)n[nH]2)c(Cl)cn1 [Example 238, 1-(5-(5-chloro-2-methoxypyridin-4-yl)-1H-pyrazole-3-carbonyl)-N-((4-(difluoromethyl)pyrimidin-2-yl)methyl)piperidine-4-carboxamide] | 839 | 5160
COc1cc(-c2cc(C(=O)N3CCC(C(=O)NCc4cccc(C(F)F)n4)CC3)n[nH]2)c(Cl)cn1 [Example 239, 1-(5-(5-chloro-2-methoxypyridin-4-yl)-1H-pyrazole-3-carbonyl)-N-((6-(difluoromethyl)pyridin-2-yl)methyl)piperidine-4-carboxamide] | 246 | 1400
COc1cc(-c2cc(C(=O)N3CCC(C(=O)NCc4ncc5c(n4)CCC5)CC3)n[nH]2)c(Cl)cn1 [Example 241, 1-(5-(5-chloro-2-methoxypyridin-4-yl)-1H-pyrazole-3-carbonyl)-N-((6,7-dihydro-5H-cyclopenta[d]pyrimidin-2-yl)methyl)piperidine-4-carboxamide] | 880 | 3480
COc1cc(-c2cc(C(=O)N3CCC(C(=O)NCc4ccc5c(c4)C(C)(C)C(=O)N5)CC3)n[nH]2)c(Cl)cn1 [Example 242, 1-(5-(5-chloro-2-methoxypyridin-4-yl)-1H-pyrazole-3-carbonyl)-N-((3,3-dimethyl-2-oxoindolin-5-yl)methyl)piperidine-4-carboxamide] | 74.2 | 1660
COc1cc(-c2cc(C(=O)N3CCC(C(=O)NCc4c(F)ccc5[nH]cnc45)CC3)n[nH]2)c(Cl)cn1 [Example 243, 1-(5-(5-chloro-2-methoxypyridin-4-yl)-1H-pyrazole-3-carbonyl)-N-((5-fluoro-1H-benzo[d]imidazol-4-yl)methyl)piperidine-4-carboxamide] | 25.8 | 414
COc1cc(-c2cc(C(=O)N3CCC(C(=O)NCc4cc5ccccc5[nH]4)CC3)n[nH]2)c(Cl)cn1 [Example 250, N-((1H-indol-2-yl)methyl)-1-(5-(5-chloro-2-methoxypyridin-4-yl)-1H-pyrazole-3-carbonyl)piperidine-4-carboxamide] | 24.7 | 430
COc1cc(-c2cc(C(=O)N3CCC(C(=O)Nc4cccc(C)n4)CC3)n[nH]2)c(Cl)cn1 [Example 251, 1-(5-(5-chloro-2-methoxypyridin-4-yl)-1H-pyrazole-3-carbonyl)-N-(6-methylpyridin-2-yl)piperidine-4-carboxamide] | 254 | 1380
COc1cc(-c2cc(C(=O)N3CCC(C(=O)NCc4nccc5[nH]ccc45)CC3)n[nH]2)c(Cl)cn1 [Example 254, N-((1H-pyrrolo[3,2-c]pyridin-4-yl)methyl)-1-(5-(5-chloro-2-methoxypyridin-4-yl)-1H-pyrazole-3-carbonyl)piperidine-4-carboxamide] | 58.8 | > 2000
COc1cc(-c2cc(C(=O)N3[C@@H]4CC[C@H]3C[C@H](C(=O)NCc3ccc5[nH]nc(F)c5c3)C4)n[nH]2)c(F)cn1 [Example 258, (1R,3S,5S)—N-[(3-fluoro-1H-indazol-5-yl)methyl]-8-[5-(5-fluoro-2-methoxypyridin-4-yl)-1H-pyrazole-3-carbonyl]-8-azabicyclo[3.2.1]octane-3-carboxamide] | 17 | 20
COc1cc(-c2cc(C(=O)N3CCC(C(=O)Nc4cnc(C)c(C)n4)CC3)n[nH]2)c(Cl)cn1 [Example 260, 1-(5-(5-chloro-2-methoxypyridin-4-yl)-1H-pyrazole-3-carbonyl)-N-(5,6-dimethylpyrazin-2-yl)piperidine-4-carboxamide] | 970 | 4030
COc1cc(-c2cc(C(=O)N3CCC(C(=O)Nc4cccc5[nH]ccc45)CC3)n[nH]2)c(Cl)cn1 [Example 261, 1-(5-(5-chloro-2-methoxypyridin-4-yl)-1H-pyrazole-3-carbonyl)-N-(1H-indol-4-yl)piperidine-4-carboxamide] | 78.4 | 490
Cc1cc(-c2cc(C(=O)N3CCC(C(=O)NCc4cccc(Cl)c4)CC3)n[nH]2)c(Cl)cn1 [Example 262, 1-[5-(5-chloro-2-methylpyridin-4-yl)-1H-pyrazole-3-carbonyl]-N-[(3-chlorophenyl)methyl]piperidine-4-carboxamide] | 29.2 | 332
COc1cc(-c2cc(C(=O)N3CCC(C(=O)NC4CCC(C)(O)CC4)CC3)n[nH]2)c(Cl)cn1 (stereo not shown) [Example 264-A] | 658 | 4890
COc1cc(-c2cc(C(=O)N3CCC(C(=O)NC4c5ccccc5OC4C)CC3)n[nH]2)c(Cl)cn1 (stereo not shown) [Example 265, 1-(5-(5-chloro-2-methoxypyridin-4-yl)-1H-pyrazole-3-carbonyl)-N-(2-methyl-2,3-dihydrobenzofuran-3-yl)piperidine-4-carboxamide] | 87.7 | 458
Cc1cc(-c2cc(C(=O)N3CCC(C(=O)NCc4cccc(Cl)c4)CC3)n[nH]2)c(F)cn1 [Example 267, N-[(3-chlorophenyl)methyl]-1-[5-(5-fluoro-2-methylpyridin-4-yl)-1H-pyrazole-3-carbonyl]piperidine-4-carboxamide] | 14.2 | 104
Cc1cc(-c2cc(C(=O)N3[C@@H]4CC[C@H]3C[C@H](C(=O)NCc3cccc(Cl)c3)C4)n[nH]2)c(F)cn1 [Example 268, (1R,3S,5S)—N-[(3-chlorophenyl)methyl]-8-[5-(5-fluoro-2-methylpyridin-4-yl)-1H-pyrazole-3-carbonyl]-8-azabicyclo[3.2.1]octane-3-carboxamide] | 7 | 36.5
Cc1cc(-c2cc(C(=O)N3CCC(C(=O)NCc4ccc5[nH]nc(F)c5c4)CC3)n[nH]2)c(F)cn1 [Example 269, N-[(3-fluoro-1H-indazol-5-yl)methyl]-1-[5-(5-fluoro-2-methylpyridin-4-yl)-1H-pyrazole-3-carbonyl]piperidine-4-carboxamide] | 12 | 160
